Measurements from patent publication US20050282865A1, “Neurotrophic factor production promoter” (FUJISAWA PHARMACEUTICAL CO., LTD., priority 2002, published 2005).

What was measured:
NGF [1] = assay: NGF expression in the cerebral cortex of mouse model of Parkinson's disease (EIA); assay type: in vivo; conditions: 6-OHDA mouse model
Protocol: (§1) The removed cerebral cortex and striatum were weighed, a homogenizing buffer (0.1M Tris-phosphate buffer (pH 7.4) containing 1M sodium hydrochloride, 2% BSA, 2 mM EDTA, 0.2% sodium azide) supplemented with aprotinin (80 TIU/L) was added in an amount of 19-fold volume of the weight, and the mixture was sonicated 30 times. After centrifugation (100,000 g×30 min) at 4° C., the supernatant was separated and the same amount of chloroform was added. The mixture was thoroughly stirred and centrifuged (20,000 g×10 min). The supernatant was separated and used as a sample for EIA (cryopreserved at −20° C. until use).
(§2) The concentration of neurotrophic factor in each sample was measured using EIA according to the method of Furukawa et al. (Journal of Neurochemistry), 40, 734-744 (1983)} in the case of NGF, and using EIA according to the method of Nitta et al. {pp. 463-467 of “Mapping the progress of Alzheimer's and Parkinson's Disease” (2002) edited by Mizuno et al.}, in the case of GDNF. The obtained values were multiplied by 20 to give a neurotrophic factor content of each brain region.
(§3) 5-week-old male ddy mice (Japan LLC, Inc.) were divided into the following four groups (9 mice per group) and subjected to a test. […]

GDNF [2] = assay: GDNF expression in the brain of normal mouse (EIA); assay type: in vivo; conditions: normal mice, 24 hr after final administration
Protocol: (§4) 5-week-old male ddy mice (Japan LLC, Inc.) were divided into the following three groups (9 mice per group) and subjected to a test. • Group 1 (Control) Phosphate buffered saline (PBS) was intraperitoneally administered to the mice once a day for 7 days. • Group 2 APA (0.75 mg/kg) dissolved in PBS was intraperitoneally administered to the mice once a day for 7 days. • Group 3 APA (7.5 mg/kg) dissolved in PBS was intraperitoneally administered to the mice once a day for 7 days.
(§5) In every group, the mice were decapitated at 24 hr after the final administration and the cerebral cortex and striatum thereof were removed.
(§6) The removed cerebral cortex and striatum were weighed, a homogenizing buffer (0.1M Tris-phosphate buffer (pH 7.4) containing 1M sodium hydrochloride, 2% BSA, 2 mM EDTA, 0.2% sodium azide) supplemented with aprotinin (80 TIU/L) was added in an amount of 19-fold volume of the weight, and the mixture was sonicated 30 times. […]
(§7) The concentration of neurotrophic factor in each sample was measured using EIA according to the method of Furukawa et al. (Journal of Neurochemistry), 40, 734-744 (1983)} in the case of NGF, and using EIA according to the method of Nitta et al. {pp. 463-467 of “Mapping the progress of Alzheimer's and Parkinson's Disease” (2002) edited by Mizuno et al.}, in the case of GDNF. […]

[3] = Observation of normal mice after 7 consecutive days of intraperitoneal APA; assay type: in vivo, mouse; conditions: normal ddy mice, APA i.p. once a day for 7 days (0.75 or 7.5 mg/kg)
Protocol: as §4

dopaminergic nerve = assay: Functional evaluation of dopaminergic nerve: methamphetamine-induced one side cycling movement in 6-OHDA mouse model of Parkinson's disease; assay type: in vivo; conditions: 6-OHDA striatum destruction, counted 10-20 min after methamphetamine 10 mg/kg, no-APA group 86.0±14.1
Protocol: 5-week-old male ddy mice (Japan LLC, Inc.) were divided into the following four groups (9 mice per group) and subjected to a test. Under pentobarbital anesthesia and without craniotomy, a needle of a microsyringe was punctured through the head skin into the striatum of the right brain, and 1 μL of 6-hydroxydopamine (6-OHDA, Sigma Co., 11.5 μg/μL) dissolved in physiological saline containing 0.05% ascorbic acid was injected. • Group 1 (Control) Physiological saline containing only ascorbic acid was injected, whereby the striatum was not damaged. […]
The mouse models of Parkinson's disease of each of the above-mentioned groups were allowed to search freely in a transparent cylindrical container (glass, diameter 9 cm-height 12 cm) for 10 min, methamphetamine (DAINIPPON Pharmaceutical Co., Ltd., 10 mg/kg) was intraperitoneally administered, and the number of cycling in 10-20 min after administration was counted. […]

NGF [4] = assay: NGF expression in the brain of normal mouse (EIA); assay type: in vivo; conditions: normal mice, 24 hr after final administration, vs control
Protocol: as §4, §5, §6, §7

GDNF [5] = assay: GDNF expression in the cerebral cortex of mouse model of Parkinson's disease (EIA); assay type: in vivo; conditions: 6-OHDA mouse model
Protocol: as §1, §2, §3

[6] = tested on: rats with injured spinal cord; assay: Walking ability of rats with spinal injury (BBB scale); assay type: in vivo, rat; conditions: spinal-injured Wistar rats, APA 0.75 mg/kg i.p. once a day
Protocol: 7-week-old male Wistar rats (Japan SMC, Inc.) were divided into the following three groups (12-17 rats per group) and subjected to a test. Pentobarbital sodium (DAINIPPON Pharmaceutical Co., Ltd., 35 mg/kg) was intraperitoneally injected to the rats, median incision was applied to the back, and paraspinal muscle was bluntly detached. After laminectomy of the 12th thoracic vertebra, the left spinal cord was cut at the same position with a sharp cutting tool. After 5 hr from the cutting, the rats confirmed to have anesthetic disorder in the left hind paw were subjected to the following test. • Group 1 PBS was intraperitoneally administered to rats with uninjured spinal cord (sutured without cutting the spinal cord after laminectomy of the 12th thoracic vertebra). • Group 2 PBS was intraperitoneally administered to rats with injured spinal cord. • Group 3 APA (0.75 mg/kg) dissolved in PBS was intraperitoneally administered to rats with injured spinal cord.
In every group, the administration was performed once a day for 20 days from the day of spinal injury. Evaluation method of walking ability of rats with injured spinal cord: The rats were placed in a box (length 1 m×width 1 m×height 30 cm) painted in gray, allowed to search freely, and evaluated in 21 levels according to 21-Point Basso-Besttie-Bresnahan Locomotor Rating Scale (BBB scale).

[7] = APA 0.75 mg/kg i.p. once a day for 7 days
[8] = APA 7.5 mg/kg i.p. once a day for 7 days

For `CC(=O)N1CCCC[C@H]1C(=O)O` [APA, N-acetyl-L-pipecolic acid], the “NGF expression amount in the cerebral cortex, increase” value (NGF [1]; [7]) was 11.2%, the “NGF expression amount in the cerebral cortex, increase” value (NGF [1]; [8]) was 30.7% and the “GDNF expression amount in the striatum, increase as compared to the control” value (GDNF [2]; [7]) was 66.0%. For the same compound, the “GDNF expression amount in the cerebral cortex” value (GDNF [2]; APA 0.75 or 7.5 mg/kg i.p. once a day for 7 days, vs control) was “no remarkable difference”, the “abnormal behavior, alopecia or decrease of body weight as compared to control mice” value [3] was “did not show abnormal behavior, alopecia or decrease of body weight” and the “one side cycling movement” value (dopaminergic nerve; APA 0.75 mg/kg i.p. for 7 days) was 40.9±17.3 times. For the same compound, the “one side cycling movement” value (dopaminergic nerve; APA 7.5 mg/kg i.p. for 7 days) was 47.1±13.1 times, the “NGF expression amount in the cerebral cortex” value (NGF [4]; APA 0.75 and 7.5 mg/kg i.p. once a day for 7 days) was “tended to increase in a dose-dependent manner” and the “NGF expression amount in the striatum” value (NGF [4]; APA 0.75 or 7.5 mg/kg i.p. once a day for 7 days) was “did not show remarkable difference from the control”. For the same compound, the “GDNF expression amount in the cerebral cortex, increase” value (GDNF [5]; [7]) was 74.9%, the “GDNF expression amount in the cerebral cortex, increase” value (GDNF [5]; [8]) was 232.4% and the “level of walking ability (BBB scale)” value ([6]; at day 23, injury-only group plateaued at score 15) was “recovery to almost the same level as before injury”. For the same compound, the “effect of APA administration on walking ability (BBB scale)” value ([6]; first 2 days) was “not observed” and the “level of walking ability (BBB scale)” value ([6]; from day 3) was “showed improvement from day 3”.
